Laboratory results from patent publication US12729458B2, “Discovery and evolution of biologically active metabolites” (The Regents of the University of Colorado, a Body Corporate, priority 2020, dated 2026).
Entries after “also recorded” stand apart in the source; their conditions may differ. Where two headings read alike, the source gives them in different places.

Tests used:
PTP1B [1] = molecular target: T1, PTP1B (Homo sapiens, UniProt P18031); assay: Ligand efficiency (TABLE 15); design: species or system H. sapiens; conditions: for IC50: PTP1B, the patent's own terpenoid inhibitors
T1 sequence (P18031 1-321 limits assumed): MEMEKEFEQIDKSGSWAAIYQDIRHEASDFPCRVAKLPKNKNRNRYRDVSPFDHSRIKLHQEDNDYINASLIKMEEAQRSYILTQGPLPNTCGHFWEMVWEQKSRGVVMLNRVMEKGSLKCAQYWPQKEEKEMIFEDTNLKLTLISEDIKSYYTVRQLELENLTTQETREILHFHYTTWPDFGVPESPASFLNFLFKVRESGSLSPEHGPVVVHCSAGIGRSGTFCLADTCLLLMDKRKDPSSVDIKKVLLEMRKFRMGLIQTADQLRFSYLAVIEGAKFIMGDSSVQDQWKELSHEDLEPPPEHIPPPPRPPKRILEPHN

PTP1B [2] = molecular target: T2, PTP1B (Homo sapiens, UniProt P18031); assay: X-ray crystallography of PTP1B soaked with ligand; type: binding, H. sapiens
T2 construct: In this study, we used a well-studied truncation variant (i.e., PTP1B1-321); His-tag; made in house; host or cells: E. coli BL21 (DE3), pET21b
T2 sequence (P18031 1-321): T1 sequence (P18031 1-321 limits assumed)
Experimental: X-ray crystallography. We prepared crystals of PTP1B by using hanging drop vapor diffusion. In brief, we added 2 μL of PTP1B (~600 μM PTP1B, 50 mM HEPES, pH 7.3) to 6 μL of crystallization solution (100 mM HEPES, 200 mM magnesium acetate, and 14% polyethylene glycol 8000, pH 7.5) and incubated the resulting droplets over crystallization solution for one week at 4° C. (EasyXtal CrystalSupport, Qiagen). We soaked crystals with ligand by transferring them to droplets formed with 6 μL of crystallization solution and 1 μL of ligand solution (10 mM in DMSO), which we incubated for 2-5 days at 4° C. We prepared all […] for freezing by soaking them in cryoprotectant formed from a 70/30 (v/v) mixture of buffer (100 mM HEPES, 200 mM magnesium acetate, and 25% polyethylene glycol 8000, pH 7.5) and glycerol.
We collected X-ray diffraction data through the Collaborative Crystallography Program at Lawrence Berkeley National Lab (ALS ENABLE, beamline 8.2.1, 100 K, 1.00003 Å). We performed integration, scaling, and merging of X-ray diffraction data using the xia2 software package^79, and we carried out molecular replacement and structure refinement with the PHENIX graphical interface,^80 supplemented with manual model adjustment in COOT^81 and one round of PDB-REDO^82 (the latter, only for the PTP1B-AD complex).

SHP2 (SHP2223-565) = molecular target: T3, SHP2 (SHP2223-565) (Homo sapiens, UniProt Q06124); assay: SHP2-catalyzed hydrolysis of 4-MUP in the presence of terpenoids; type: biochemical, H. sapiens; conditions: for Ki: SHP2223-565
T3 construct: made in house; host or cells: E. coli BL21 (DE3)
T3 sequence (Q06124 223-565 limits assumed): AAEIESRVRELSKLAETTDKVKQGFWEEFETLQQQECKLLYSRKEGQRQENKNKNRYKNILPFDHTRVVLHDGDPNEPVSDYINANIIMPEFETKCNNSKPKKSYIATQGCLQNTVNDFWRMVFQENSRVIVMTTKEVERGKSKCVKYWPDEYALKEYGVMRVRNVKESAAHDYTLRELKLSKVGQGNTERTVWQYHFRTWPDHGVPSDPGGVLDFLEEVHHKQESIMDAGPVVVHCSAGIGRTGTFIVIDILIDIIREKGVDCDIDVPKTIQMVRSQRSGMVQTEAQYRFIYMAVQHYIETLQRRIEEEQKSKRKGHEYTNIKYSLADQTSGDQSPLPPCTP
Experimental: (§1) Enzyme kinetics. To examine terpenoid-mediated inhibition, we measured PTP-catalyzed hydrolysis of p-nitrophenyl phosphate (pNPP) or 4-methylumbelliferyl phosphate (4-MUP, used when KM for pNPP was large) in the presence of various concentrations of terpenoids. Each reaction included PTP (0.05 μM PTP1B/TCPTP or 0.1 μM SHP1/SHP2 in 50 mM HEPES, 0.5 mM TCEP, 50 μg/ml BSA), pNPP (0.33, 0.67, 2, 5, 10, and 15 mM) or 4-MUP (0.13, 0.27, 0.8, 2.27, 2.93, 4.53, 7.07, and 8 mM), inhibitor (with concentrations listed in the figures), buffer (50 mM HEPES pH=7.3, 50 μg/ml BSA), and DMSO at 10% v/v. We monitored the formation of p-nitrophenol by measuring absorbance at 405 nm every 10 seconds for 5 minutes on a SpectraMax M2 plate reader and the formation of 4-methylumbelliferyl by measuring fluorescence at 450 nm (370 nm ex, 435 nm cutoff, medium gain).
(§2) We used a custom MATLAB script to process all raw kinetic data. This script removed all concentration values that fell outside of either (i) the range of our standard curve (absorbance/fluorescence vs. μM; FIG. 39) or (ii) the initial rate regime (>10% of the pNPP or 4-MUP concentration used in the assay). When this step reduced kinetic dataset to fewer than ten points, we re-measured those datasets to collect at least ten. We fit final datasets, in turn, with a linear regression model (using Matlab's backslash operator).
(§3) We evaluated kinetic models in three steps: (i) We fit initial-rate measurements collected in the absence and presence of inhibitors to Michaelis-Menten and inhibition models, respectively (here, we used the nlinfit and fminsearch functions from MATLAB; TABLE 12). (ii) We used an F-test to compare the mixed model to the single-parameter model with the least sum squared error (here, we used the fedf function from MATLAB to assign p-values), and we accepted the mixed model when p<0.05. (iii) We used the Akaike's Information Criterion (AIC) to compare the best-fit single parameter model to each alternative single parameter model, and we accepted the “best-fit” model when the difference in AIC (Δi) exceed 5 for all comparisons.^78 We note: For AD, AB, and (+) 1-(10),4-cadinadiene this criterion was not met; both noncompetitive and uncompetitive models, however, yielded indistinguishable ICso's.
(§4) We used the MATLAB function “nlparci” to determine the confidence intervals of kinetic parameters, and we propagated those intervals to estimate corresponding confidence intervals for each IC50.

TCPTP1-281 = assay: pNPP hydrolysis by TC-PTP lacking the α7-equivalent region; type: biochemical, H. sapiens; conditions: for change in PTP1B/TC-PTP selectivity on removal of the α7 helix (or equivalent) from both enzymes: PTP1B1-281 and TCPTP1-281 vs full constructs; for Ki: TCPTP1-281
Experimental: as §1, §2, §3, §4

[3] = competitive model of inhibition, read-out: Fit par. Ki, competitive model
[4] = mixed model, competitive constant, read-out: Fit par. Ki,c, mixed model
[5] = mixed model, uncompetitive constant, read-out: Fit par. Ki,u, mixed model
[6] = noncompetitive model of inhibition, read-out: Fit par. Ki, noncompetitive model
[7] = uncompetitive model of inhibition, read-out: Fit par. Ki, uncompetitive model

Question: What does the source list for C=C(C)[C@@H]1CC[C@@H](C)[C@@H]2CCC(C)=C[C@@H]21 [amorphadiene]?
Answer: ligand efficiency (PTP1B [1]; (−2.303RT)/HAC * log(IC50)): 0.39 kcal/mol-atom; IC50 (PTP1B [1]): 50 µM; ligand efficiency (PTP1B [1]; TABLE 15): high; binding site on PTP1B (crystal structure) (PTP1B [2]; crystal soaked with ligand, pdb entry 6W30): binds to the same allosteric site targeted by benzbromarone derivatives; potency against SHP2 relative to PTP1B (SHP2 (SHP2223-565); 4-MUP, less potent on SHP2): three-fold; Ki (SHP2 (SHP2223-565); [3]): 25.1 µM; Ki (SHP2 (SHP2223-565); [4]): 236 µM; Ki (SHP2 (SHP2223-565); [5]): 132 µM; Ki (SHP2 (SHP2223-565); [6]): 146 µM; Ki (SHP2 (SHP2223-565); [7]): 117 µM; change in PTP1B/TC-PTP selectivity on removal of the α7 helix (or equivalent) from both enzymes (TCPTP1-281; listed as AD): four-fold; also recorded: reduces the selectivity; Ki (TCPTP1-281; [3]): 87.2 µM; Ki (TCPTP1-281; [5]): 356 µM; Ki (TCPTP1-281; [6]): 400 µM; Ki (TCPTP1-281; [7]): 356 µM

Question: For CC(C)=CCC=C(C)C1CC=C(C)CC1 (stereo not drawn) [α-bisabolene], which “ligand efficiency” value (PTP1B [1]; (−2.303RT)/HAC * log(IC50)) is on record?
Answer: The value was 0.44 kcal/mol-atom.

Question: What about the IC50 (PTP1B [1]) of the same compound?
Answer: Its IC50 is 13 µM.

Question: And the ligand efficiency (PTP1B [1]; TABLE 15)?
Answer: Its ligand efficiency is “high”.

Question: And the “solubility (crystal soaking experiments)” value (PTP1B [2])?
Answer: The value was “poor solubility”.

Question: What about the “inhibition of SHP2” value (SHP2 (SHP2223-565); 4-MUP) of the same compound?
Answer: The value was “low potency”.

Question: And the “% inhibition of SHP2” value (SHP2 (SHP2223-565); at the solubility limit, 4-MUP)?
Answer: The value was ≤ 25%.

Question: And the “change in PTP1B/TC-PTP selectivity on removal of the α7 helix (or equivalent) from both enzymes” value (TCPTP1-281; listed as AB)?
Answer: Its value is “insensitive and not”.

Question: And the Ki (TCPTP1-281; [3])?
Answer: The Ki was 13.7 µM.

Question: And the Ki (TCPTP1-281; [4])?
Answer: Its Ki is 3610 µM.

Question: And the Ki (TCPTP1-281; [5])?
Answer: The Ki was 69.3 µM.

Question: And the Ki (TCPTP1-281; [6])?
Answer: Its Ki is 76.2 µM.

Question: And the Ki (TCPTP1-281; [7])?
Answer: Its Ki is 69.2 µM.
